Results from patent US20080194524A1, “Compounds For the Inhibition of Undesired Cell Proliferation and Use Thereof” (JERINI AG, priority 2003, published 2008).
Like-named read-outs stand apart in the source and are kept apart here.

Molecular target: hPin1 (Protein interacting with NIMA (-kinase)) (Homo sapiens, UniProt Q13526)
Experiment: protease-coupled PPIase assay, hPin1
Assay type: biochemical
[1] = hPin1 6 nM, substrate Ac-Ala-Ala-Ser(PO3H2)-Pro-Arg-pNA, trypsin, 35 mM HEPES pH 7.8, 6° C., read-out: Specificity of the inhibition with rotamases, Target T-1 (IC50 class)

hPin1 (Protein interacting with NIMA (-kinase)), sequence (Q13526 whole entry): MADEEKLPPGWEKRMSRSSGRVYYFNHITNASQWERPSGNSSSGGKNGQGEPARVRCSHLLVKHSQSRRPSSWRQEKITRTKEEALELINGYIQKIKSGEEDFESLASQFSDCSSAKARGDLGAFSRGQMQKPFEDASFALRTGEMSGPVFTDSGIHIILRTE

Compound	IC50	IC50 [1]
CC(=O)N[C@@H](Cc1csc2ccccc12)C(=O)N[C@H](CSCP(=O)(O)O)C(=O)N1CCCC[C@H]1C(=O)N[C@@H](Cc1ccc2ccccc2c1)C(N)=O (stereo in doubt) [Compound 3, {2-(2-Acetylamino-3-benzo[b]thiophen-3-yl-propionylamino)-3-[2-(1-carbamoyl-2-naphthalen-2-yl-ethylcarbamoyl)-piperidin-1-yl]-3-oxo-propylsulfanylmethyl}-phosphonic acid]	< 1000 nM	–
NC(=O)[C@H](Cc1ccc2ccccc2c1)NC(=O)[C@@H]1CCCCN1C(=O)[C@H](CSCP(=O)(O)O)NC(=O)c1cc2ccccc2o1 [Compound 40, {2-[(Benzofuran-2-carbonyl)-amino]-3-[2-(1-carbamoyl-2-naphthalen-2-yl-ethylcarbamoyl)-piperidin-1-yl]-3-oxo-propylsulfanylmethyl}-phosphonicacid]	–	1000 to 10000 nM
NC(=O)[C@H](Cc1ccc2ccccc2c1)NC(=O)[C@@H]1CCCCN1C(=O)[C@H](COCP(=O)(O)O)NC(=O)OCC1c2ccccc2-c2ccccc21 [Compound 4, [3-[2-(1-Carbamoyl-2-naphthalen-2-yl-ethylcarbamoyl)-piperidin-1-yl]-2-(9H-fluoren-9-ylmethoxycarbonylamino)-3-oxo-propoxymethyl]-phosphonic acid]	–	1000 to 10000 nM
COc1ccc(CCCC(=O)N[C@@H](CSCP(=O)(O)O)C(=O)N2CCCC[C@H]2C(=O)N[C@@H](Cc2ccc3ccccc3c2)C(N)=O)cc1 [Compound 38, {3-[2-(1-Carbamoyl-2-naphthalen-2-yl-ethylcarbamoyl)-piperidin-1-yl]-2-[4-(4-methoxy-phenyl)-butyrylamino]-3-oxo-propylsulfanylmethyl}-phosphonicacid]	–	< 1000 nM
CS(=O)(=O)N[C@@H](CSCP(=O)(O)O)C(=O)N1CCCC[C@H]1C(=O)N[C@@H](Cc1ccc2ccccc2c1)C(N)=O [Compound 51, {3-[2-(1-Carbamoyl-2-naphthalen-2-yl-ethylcarbamoyl)-piperidin-1-yl]-2-methanesulfonylamino-3-oxo-propylsulfanylmethyl}-phosphonic acid]	–	1000 to 10000 nM
COc1ccccc1CC(=O)N[C@@H](CSCP(=O)(O)O)C(=O)N1CCCC[C@H]1C(=O)N[C@@H](Cc1ccc2ccccc2c1)C(N)=O [Compound 58, {3-[2-(1-Carbamoyl-2-naphthalen-2-yl-ethylcarbamoyl)-piperidin-1-yl]-2-[2-(2-methoxy-phenyl)-acetylamino]-3-oxo-propylsulfanylmethyl}-phosphonicacid]	–	< 1000 nM
